Test results from patent EP0316592A2, “3'-Fluoro-2',3'-dideoxyuridine, and its therapeutic application” (Stichting REGA V.Z.W., priority 1987, dated 1989).

What was measured:
HIV [1] = details: MT4 lymphocytes; cited from earlier work
Molt/4F dCyd kinase = target: T1, Molt/4F dCyd kinase (Homo sapiens, UniProt P27707); test: Inhibition of dCyd kinase (Lineweaver-Burk); format: biochemical
T1 construct: endogenous in cells; host or cells: Molt/4F cells (sonicated extract, 30-70% ammonium sulfate fraction, dialyzed)
Method: ddUrd and the 3′-fluoro- and 3′-azido-substituted pyrimidine 2′,3′-dideoxynucleoside analogues were evaluated for their inhibitory effect against dThd and dCyd kinase.
dThd kinase and dCyd kinase were prepared from exponen tially growing Molt/4F cells, which were first washed (2x) with phosphate-buffered saline at 4° and then homogenized by sonication. The suspensions were clarified by centrifugation at 25,000-27,000 x g for 30 min. The 30-70% (NH₄)₂SO₄ precipitate of the supernatant was resuspended in buffer containing 10 uM potassium phosphate, pH 7.5, 10 mM β-mercaptoethanol and 0.1 M KCl, dialyzed against the same buffer, and used for the dThd kinase and the dCyd kinase assays. In these experiments, (2-¹⁴C)dThd and (U-¹⁴C)dCyd served as the radiolabelled substrates. The apparent Km and Ki values were derived from Lineweaver-Burk plots, using a linear regression analysis program. The assay procedures have been described in detail (J. Balzarini et al, (1983) and J. Balzarini et al, Biochem. Pharmacol. 31, 3673-3682 (1982)).

C3H cells = test: Cytotoxicity for C3H cells (alteration of normal cell morphology); format: cell-based, mouse; details: alteration of normal cell morphology, C3H cells
HIV [2] = details: ATH8 T-lymphocyte cell line; cited from earlier work
[3] = target: T2, bacterial thymidine phosphorylase (Escherichia coli, UniProt P07650); test: Phosphorolytic cleavage by dThd phosphorylase; format: biochemical; details: for Initial velocity of phosphorolysis: 25°C, 0.1 M sodium phosphate buffer, pH 7.0, N.D. = not detectable with 25 units of enzyme
T2 construct: purchased Sigma Chemical Co., St. Louis, MO
Method: Phosphorolytic cleavage of the test compounds was assessed using purified bacterial dThd phosphorylase (Sigma Chemical Co., St. Louis, MO) with the aid of a Beckman spectrophotometer UV/Vis 5200; the absorbance change during the enzyme reaction was continuously monitored at 25°C at the wavelength where the difference of absorption between the nucleoside and its free base was maximal. The reaction mixtures for all the assays consisted of enzyme and non-satura ting concentrations of nucleoside in 0.1 M sodium phosphate buffer, pH 7.0. The initial velocity of phosphorolysis was expressed as nmol/min/enzyme unit.

[4] = system: Moloney murine sarcoma virus (MSV); test: Inhibition of transformation of C3H cells by MSV; format: cell-based
Method: Moloney murine sarcoma virus (MSV) was prepared from tumors induced by in vivo infection of 10 day-old NMRI mice according to the procedure described by De Clercq et al (Proc. Soc. Exp. Biol. Med. 137, 590-594 (1971)).
ddUrd and the substituted pymiridine 2′,3′-dideoxynucleoside analogues were examined for their inhibitory effect on the transformation of mouse embryo C3H fibroblasts by Moloney murine sarcoma virus (MSV).
C3H cells were seeded at 20,000 cells per ml into wells of Costar Tissue Culture Cluster plates (48 wells per plate) and grown to confluency. Cell cultures were then infected by 150 foci-forming units of MSV during 90 min, whereafter the culture medium was replaced by 1 ml fresh medium containing different concentrations of the test compound. After 6 days, the transformation of the cell cultures was examined microscopically.

T2 sequence (P07650 whole entry): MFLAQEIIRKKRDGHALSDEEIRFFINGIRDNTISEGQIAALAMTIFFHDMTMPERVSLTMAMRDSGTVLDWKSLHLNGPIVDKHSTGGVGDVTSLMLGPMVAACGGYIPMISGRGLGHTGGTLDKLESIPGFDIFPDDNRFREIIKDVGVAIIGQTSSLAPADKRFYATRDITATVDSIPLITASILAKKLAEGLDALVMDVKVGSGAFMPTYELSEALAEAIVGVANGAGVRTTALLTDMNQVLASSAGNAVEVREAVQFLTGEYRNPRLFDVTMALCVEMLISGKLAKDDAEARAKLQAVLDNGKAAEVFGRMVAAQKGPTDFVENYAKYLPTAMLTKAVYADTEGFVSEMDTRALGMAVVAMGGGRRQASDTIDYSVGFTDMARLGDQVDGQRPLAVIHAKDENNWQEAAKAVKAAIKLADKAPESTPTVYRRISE
T1 sequence (P27707 whole entry): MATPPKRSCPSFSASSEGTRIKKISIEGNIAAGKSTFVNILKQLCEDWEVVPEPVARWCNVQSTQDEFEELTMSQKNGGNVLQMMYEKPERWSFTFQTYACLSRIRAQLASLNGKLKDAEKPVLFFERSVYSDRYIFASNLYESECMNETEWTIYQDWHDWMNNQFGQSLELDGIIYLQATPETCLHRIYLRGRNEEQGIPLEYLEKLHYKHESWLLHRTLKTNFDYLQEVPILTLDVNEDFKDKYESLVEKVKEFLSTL

In the case of Cc1cn([C@H]2C=C[C@@H](CO)O2)c(=O)[nH]c1=O [2′,3′-didehydro-2′,3′-dideoxythymidine], the “concentration that protects MT4 cells against HIV” value (HIV [1]) is listed as 0,04 µM.
For [N-]=[N+]=N[C@H]1C[C@H](n2ccc(N)nc2=O)O[C@@H]1CO [AzddCyd, 3′-Azido-2′,3′-dideoxycytidine], the Ki/Km (Molt/4F dCyd kinase; Km 5.2 to 6.4 µM) was 58, the Ki (Molt/4F dCyd kinase; substrate (U-14C)dCyd) was 354 µM and the Type of inhibition (Molt/4F dCyd kinase; with respect to dCyd) was “competitive”. The “MSV-induced cyto-pathogenicity CD50” value (C3H cells) was greater than 400 µM, the “anti-retroviral effect compared with ddCyd” value (HIV [2]) was “much less effective than ddCyd” and the “susceptibility to phosphorolysis by dThd phosphorylase (in words)” value ([3]; purified bacterial dThd phosphorylase) was “totally resistant”. For the same molecule, the EC50 ([4]; Moloney murine sarcoma virus, 144 h, 50% reduction of transformation of C3H cells by MSV, 6 days, read-out: MSV-induced cyto-pathogenicity ED50) was 70 µM and the “MSV-induced cyto-pathogenicity S.I.” value ([4]; Selectivity index or ratio of CD50 to ED50, C3H cells) was greater than 5.7.
In the case of CCc1cn([C@H]2C[C@H](O)[C@@H](CO)O2)c(=O)[nH]c1=O [dEtUrd], the “Initial velocity of phosphorolysis” value [3] is reported as 0.893 nmol/min/unit.
For Cc1cn([C@H]2C[C@H](N=[N+]=[N-])[C@@H](CO)O2)c(=O)[nH]c1=O [AzddThd, 3′-azido-2′,3′-dideoxythymidine], the “concentration that protects MT4 cells against HIV” value (HIV [1]) is listed as 0.02 µM.
For O=c1ccn([C@H]2C[C@H](O)[C@@H](CO)O2)c(=O)[nH]1 [dUrd], the “Initial velocity of phosphorolysis” value [3] was 361 nmol/min/unit.
For Cc1cn([C@H]2CC[C@@H](CO)O2)c(=O)[nH]c1=O [2′,3′-dideoxythymidine], the “concentration that protects MT4 cells against HIV” value (HIV [1]) is listed as 1 µM.
